Assays:
Format in all cases: in vivo
[1] = test system: Beet Armyworm (Spodoptera exigua, LAPHEG, BAW); assay: Bioassay 7: beet armyworm, artificial diet, 96 well plate; conditions: AI alone at 0.4 wt %
Procedure: (§1) The test solutions were tested against CEW, FAW, BAW, and SBL using the following procedure: an artificial lepidopteran diet (Multispecies Lepidopteran Diet, Southland Products) was distributed in 96 well plate. Twenty μL of test solution was pipetted onto a cell in the bioassay plate. […] Each treatment was replicated 5 times for each species. Approximately five first instar CEW, FAW, BAW, or SBL larva were placed on top of the diet in each cell and was contained with a clear perforated adhesive lid. Test trays were held at approximately 25° C. and ambient relative humidity prior to grading. After five days, the number of cells where all the larvae were dead were recorded as 100% and averaged across all replicates; then the percent control was measured using Abbott's correction formula (W. S. Abbott, J. Econ. Entomol. 18 (1925), pp. 265-267) as follows:
(§2) where X=No. of live larvae on solvent check and Y=No. of live larvae on treated diet. In Table 7 the “Expected % Control” was calculated using the method described in Colby S. R., Weeds, 1967, 15, 20-22. Bioassay 8: Western Corn Rootworm (Diabrotica virgifera virgifera, DIABVI, “WCR”)

[2] = test system: Soybean Looper (Chrysodeixis includens, PSEPIN, SBL); assay: Bioassay 7: soybean looper, artificial diet, 96 well plate; conditions: CL
Procedure: as §1, §2

[3] = test system: Corn Earworm (Helicoverpa zea, HELIZE, CEW); assay: Bioassay 7: corn earworm, artificial diet, 96 well plate
Procedure: as §1, §2

[4] = test system: Soybean Looper (Chrysodeixis includens, PSEPIN, SBL); assay: Bioassay 4: soybean looper, artificial diet, 128-cell tray; conditions: AI alone
Procedure: (§3) Stock solutions were prepared with F1 as well as for each of the active ingredients individually. Test solutions were prepared from the stock solutions. Test solutions were prepared containing F1, the individual active ingredients, and mixtures of F1 with each of the active ingredients. The test solution for F1 was prepared by adding 500 μL of the stock solution to a 25 mL glass vial, then adding 500 μL of a 9:1 mixture of acetone:water. The individual active ingredients were prepared by adding 500 μL of stock solution to a 25 mL glass vial, then adding 500 μL of a 9:1 mixture of acetone:water. The test solutions containing mixtures of F1, and the individual active ingredients were prepared by adding 500 μL of the active ingredient stock solution to a 25 mL glass vial, followed by 500 μL of the F1 stock solution, creating a test solution containing 0.04% (w/v) of F1 and 0.4% (w/v) of the active ingredient. Each test solution was serially diluted to create desired doses of test solutions (F1 at 0.04% (w/v), 0.004% (w/v), 0.0004% (w/v), 0.00004% (w/v), 0.000004% (w/v), and 0.0000004% (w/v) and active ingredients at 0.4% (w/v), 0.04% (w/v), 0.004% (w/v), 0.0004% (w/v), 0.00004% (w/v), and 0.000004% (w/v)).
(§4) The test solutions were tested against CEW, FAW, and SBL using the following procedure: an artificial lepidopteran diet (Multispecies Lepidopteran Diet, Southland Products) was distributed in 128-cell bioassay trays (Frontier Agricultural Sciences™). 50 μL of test solution was pipetted into a cell in the bioassay tray. (The test solution doses of 0.04% (w/v), 0.004% (w/v), 0.0004% (w/v), 0.00004% (w/v), 0.000004% (w/v), and 0.0000004% (w/v) translated to concentrations of 5, 0.5, 0.05, 0.005, 0.0005, and 0.00005 μg/cm^2 on the diet, respectively.) A reference treatment (solvent check) was treated with the diluent only. Each treatment was replicated 8 times for each species. A 2nd instar CEW, FAW, or SBL larva was placed on top of the diet in each cell and was contained with a clear perforated adhesive lid. Test trays were held at approximately 26° C. and ambient relative humidity (RH) prior to grading.
(§5) After 5 days, the number of live larvae were recorded from each cell and percent control was measured using Abbott's correction formula (W. S. Abbott, J. Econ. Entomol. 18 (1925), pp. 265-267) as follows:
(§6) where X=No. of live larvae on solvent check and Y=No. of live larvae on treated diet. In Table B4 the “Expected % Control” was calculated using the method described in Colby S. R., Weeds, 1967, 15, 20-22. Bioassay 5: Neotropical Brown Stink Bug (Euschistus heros, EUSCHE, “BSB”).

[5] = test system: Fall Armyworm (Spodoptera frugiperda, LAPHFR, FAW); assay: Bioassay 4: fall armyworm, artificial diet, 128-cell tray; conditions: AI alone
Procedure: as §3, §4, §5, §6

[6] = test system: Corn Earworm (Helicoverpa zea, HELIZE, CEW); assay: Bioassay 4: corn earworm, artificial diet, 128-cell tray; conditions: AI alone
Procedure: as §3, §4, §5, §6

[7] = test system: Western Flower Thrips (Frankliniella occidentalis, FRANOC, WFT); assay: Bioassay 3: western flower thrips, cotton leaf disc dip; conditions: 3 days
Procedure: Stock solutions of F1 and various active ingredients were prepared initially at a concentration of 0.1 mg/mL using acetone as a diluent. Stock solutions were prepared with F1 as well as for each of the active ingredients individually. Test solutions were prepared from the stock solutions. Test solutions were prepared containing F1, the individual active ingredients, and mixtures of F1 with each of the active ingredients. The test solutions for F1 and the individual active ingredients were prepared by adding 500 μL of stock solution to a 25 mL glass vial, then adding 500 μL of acetone, followed by the addition of 9 mL water with 0.025% Tween® 20 to create a 0.0005% (w/v) solution. The test solutions containing mixtures of F1, and the individual active ingredients were prepared by adding 500 μL of the active ingredient stock solution to a 25 mL glass vial, followed by 500 μL of the F1 stock solution, then by the addition of 9 mL water with 0.025% Tween® 20 to create a test solution containing 0.0005% (w/v) F1 and 0.0005% (w/v) of the active ingredient. Each test solution was serially diluted to create desired doses of test solutions (0.0005% (w/v), 0.000125% (w/v), 0.00003125% (w/v), 0.0000078% (w/v), and 0.00000195% (w/v)).
The test solutions were tested against WFT using the following procedure: Leaf discs (2.7 cm in diameter) were cut from the true leaves of cotton plants. Leaf discs were dipped into the test solutions and shaken to ensure complete coverage of the leaf disc and then placed in Millipore® PetriSlides containing a filter paper disc. Treated leaf discs were air dried for approximately 1 hour. Each leaf disc was infested with 5 WFT (9-10-day old nymphs) by placement on each leaf disc, and the PetriSlides were capped to prevent escape. Each treatment was replicated three times and the test treatments were held at approximately 26° C. and ambient relative humidity (RH) prior to grading. Reference discs (solvent check) were treated with the diluent only. Evaluation was conducted by counting the number of live WFT under magnification 3 days after treatment. Percent control was measured using Abbott's correction formula (W. S. Abbott, J. Econ. Entomol. 18 (1925), pp. 265-267) as follows:
where X=No. of live nymphs on solvent check leaf discs and Y=No. of live nymphs on treated leaf discs. In Table B3 the “Expected % Control” was calculated using the method described in Colby S. R., Weeds, 1967, 15, 20-22. Bioassay 4: Corn Earworm (Helicoverpa zea, HELIZE, “CEW”), Fall Armyworm (Spodoptera frugiperda, LAPHFR, “FAW”), and Soybean Looper (Chrysodeixis includens, PSEPIN, “SBL”).

[8] = AI alone at 1:1 rate to F1 3.125 (10^-6 Wt %)
[9] = AI alone at 1:1 rate to F1 0.195 (10^-6 Wt %)
[10] = AI alone at 1:1 rate to F1 0.78 (10^-6 Wt %)

Row | Compound | Average % Control AI ([4]; 0.000004 wt %) | Average % Control AI ([5]; 0.000004 wt %) | Average % Control AI ([6]; 0.000004 wt %) | Average % Control AI ([6]; 0.00004 wt %) | further results
1 | N#Cc1c[nH]cc1-c1cccc2c1OC(F)(F)O2 [Fludioxonil] | – | – | – | – | Average % Control AI [1]: 0.0%
2 | COC(=O)N(OC)c1ccccc1COc1ccn(-c2ccc(Cl)cc2)n1 [Pyraclostrobin] | – | – | – | – | Average % Control AI ([2]; AI alone at 0.04 wt %): 0.0%; Average % Control AI ([3]; AI alone at 0.04 wt %): 0.0%
3 | O=C(NCCc1ncc(C(F)(F)F)cc1Cl)c1ccccc1C(F)(F)F [Fluopyram] | – | – | – | – | Average % Control AI [1]: 0.0%
4 | COc1ccc(Cl)c(S(=O)(=O)NC(=O)c2cn3cc(C(F)(F)F)cc(Cl)c3n2)c1 [Fluazain dolizine] | – | – | – | – | Average % Control AI [1]: 0.0%
5 | CC(C(=O)Nc1cn(-c2cccnc2)nc1Cl)S(C)(=O)=O (centres unmarked) [AI-2, N-(3-chloro-1-(pyridin-3-yl)-1H-pyrazol-4-yl)-2-(methylsulfonyl)propanamide] | 0.0% | 0.0% | 0.0% | 0.0% | –
6 | CC(O)(Cn1cncn1)c1ccc(Oc2ccc(Cl)cc2)cc1C(F)(F)F (centres unmarked) [Mefentrifluconazole] | – | – | – | – | Average % Control AI [1]: 0.0%; Average % Control AI ([3]; AI alone at 0.4 wt %): 0.0%
7 | COc1cccc(C(=O)NN(C(=O)c2cc(C)cc(C)c2)C(C)(C)C)c1C [Methoxyfenozide] | 25.0% | 12.5% | 0.0% | 0.0% | Average % Control AI ([5]; 0.00004 wt %): 0.0%; Average % Control AI [7, 8]: 4.8%
8 | CC(c1ccc(C(F)(F)F)nc1)S(C)(=O)=NC#N (centres unmarked) [Sulfoxaflor] | 12.5% | 0.0% | 0.0% | 0.0% | –
9 | FC(F)(F)c1ccc(COc2ncncc2C2OCCCO2)cc1 [Benzpyrimoxan] | 0.0% | 0.0% | 0.0% | 0.0% | –
10 | CC(COc1ccc(Oc2ccccc2)cc1)Oc1ccccn1 (centres unmarked) [Pyriproxyfen] | 12.5% | 12.5% | 0.0% | 0.0% | –
11 | O=C(N=c1ccccn1Cc1ccc(Cl)nc1)C(F)(F)F [Flupyrimin] | 0.0% | 0.0% | 0.0% | 0.0% | Average % Control AI ([4]; 0.00004 wt %): 0.0%; Average % Control AI ([5]; 0.00004 wt %): 0.0%; Average % Control AI [7, 9]: 4.8%
12 | Cn1cc(C(=O)Nc2ccccc2-c2cc(F)c(F)c(F)c2)c(C(F)F)n1 [Fluxapyroxad] | – | – | – | – | Average % Control AI [1]: 0.0%
13 | CO/C=C(/C(=O)OC)c1ccccc1Oc1cc(Oc2ccccc2C#N)ncn1 [Azoxystrobin] | – | – | – | – | Average % Control AI [1]: 0.0%
14 | CC1(C)[C@H](/C=C(\Cl)C(F)(F)F)[C@@H]1C(=O)O[C@@H](C#N)c1cccc(Oc2ccccc2)c1 [Lambda-cyhalothrin] | 12.5% | 0.0% | 0.0% | – | Average % Control AI ([5]; 0.00004 wt %): 0.0%
15 | Tetraniliprole | 0.0% | 0.0% | 0.0% | 0.0% | Average % Control AI ([4]; 0.00004 wt %): 12.5%; Average % Control AI ([5]; 0.00004 wt %): 50.0%; Average % Control AI [7, 9]: 0.0%; Average % Control AI [7, 10]: 5.7%; Average % Control AI [7, 8]: 0.0%; Average % Control AI ([7]; AI alone at 1:1 rate to F1 12.5 (10^-6 Wt %)): 12.6%; Average % Control AI ([7]; AI alone at 1:1 rate to F1 50 (10^-6 Wt %)): 0.0%; Average % Control AI ([6]; 0.0004 wt %): 12.5%
16 | CCOC(=O)OC1=C(c2cc(C)ccc2C)C(=O)N[C@]12CC[C@@H](OC)CC2 [Spirotetramat] | 12.5% | 0.0% | 0.0% | 0.0% | –
17 | [Cu+2].[OH-].[OH-] [Copper Hydroxide] | – | – | – | – | Average % Control AI ([2]; AI alone at 0.4 wt %): 0.0%
18 | Tebuconazole | – | – | – | – | Average % Control AI ([3]; AI alone at 0.4 wt %): 0.0%
19 | CNC(=O)c1cc(C#N)cc(C)c1NC(=O)c1cc(Br)nn1-c1ncccc1Cl [Cyantraniliprole] | 0.0% | 0.0% | 0.0% | 0.0% | Average % Control AI ([4]; 0.00004 wt %): 0.0%; Average % Control AI ([5]; 0.00004 wt %): 0.0%; Average % Control AI [7, 10]: 0.0%
20 | Dinotefuran | – | – | 0.0% | 0.0% | –
21 | CC1(C)CCC(Cc2ccc(Cl)cc2)C1(O)Cn1cncn1 (centres unmarked) [Metconazole] | – | – | – | – | Average % Control AI [1]: 0.0%
22 | C/C(=N\C#N)N(C)Cc1ccc(Cl)nc1 [Acetamiprid] | – | – | 0.0% | 0.0% | Average % Control AI ([4]; 0.00004 wt %): 0.0%; Average % Control AI ([5]; 0.00004 wt %): 0.0%
23 | CCCC1COC(Cn2cncn2)(c2ccc(Cl)cc2Cl)O1 (centres unmarked) [Propiconazole] | – | – | – | – | Average % Control AI ([3]; AI alone at 0.4 wt %): 0.0%
24 | Spinosad | 0.0% | 12.5% | 0.0% | 0.0% | Average % Control AI [7, 8]: 57.1%

From patent US20260182575A1, “MOLECULES HAVING PESTICIDAL UTILITY AND INTERMEDIATES AND PROCESSES RELATED THERETO” (CORTEVA AGRISCIENCE LLC, priority 2022, published 2026)
